Measured values from patent publication US20170333591A9, “ABSORBENT ARTICLE COMPRISING MALODOR REDUCTION COMPOSITIONS” (The Procter & Gamble Company, priority 2014, published 2017).

Test: Log of liquid dish neat product liquid-air partition coefficient
Format: physicochemical
Conditions: for Log of liquid dish neat product liquid-air partition coefficient (Comment Code K/L): code letter within the Comment Code cell

CC(C)=CCCC(C)=CCC1CCCC1=O (racemic) [Material 307]
Log of liquid dish neat product liquid-air partition coefficient (Comment Code K/L): K (Log of liquid dish neat product liquid-air partition coefficient greater than or equal to 7)

C=CC(C)CCC=C(C)CCC=O (racemic) [Material 358]
Log of liquid dish neat product liquid-air partition coefficient (Comment Code K/L): K (Log of liquid dish neat product liquid-air partition coefficient greater than or equal to 7)

CCCCCCC#CC(OC)OC [Material 3]
Log of liquid dish neat product liquid-air partition coefficient (Comment Code K/L): K (Log of liquid dish neat product liquid-air partition coefficient greater than or equal to 7)

Cc1ccc(C(C)(C)O)cc1 [Material 4]
Log of liquid dish neat product liquid-air partition coefficient (Comment Code K/L): K (Log of liquid dish neat product liquid-air partition coefficient greater than or equal to 7)

C=C1C2CCC(C)(C)C1CCC(OC)C2 (stereo not drawn) [Material 7]
Comment Code: Log of liquid dish neat product liquid-air partition coefficient: K (Log of liquid dish neat product liquid-air partition coefficient greater than or equal to 7)
Log of liquid dish neat product liquid-air partition coefficient (Comment Code K/L): K (Log of liquid dish neat product liquid-air partition coefficient greater than or equal to 7)

COC1CCCCCCCCCCC1 [Material 9]
Log of liquid dish neat product liquid-air partition coefficient (Comment Code K/L): K (Log of liquid dish neat product liquid-air partition coefficient greater than or equal to 7)

COC1(OC)CCCCCCCCCCC1 [Material 10]
Log of liquid dish neat product liquid-air partition coefficient (Comment Code K/L): K (Log of liquid dish neat product liquid-air partition coefficient greater than or equal to 7)

CCCCCCCCCC/C=C\C#N [Material 11]
Log of liquid dish neat product liquid-air partition coefficient (Comment Code K/L): K (Log of liquid dish neat product liquid-air partition coefficient greater than or equal to 7)

CCOC1CCC(C(C)(C)CC)CC1 (stereo not drawn) [Material 12]
Comment Code: Log of liquid dish neat product liquid-air partition coefficient: K (Log of liquid dish neat product liquid-air partition coefficient greater than or equal to 7)

CC1(O)CCOC2(CCCCC2)C1 (stereo not drawn) [Material 16]
Log of liquid dish neat product liquid-air partition coefficient (Comment Code K/L): K (Log of liquid dish neat product liquid-air partition coefficient greater than or equal to 7)

Cc1ccc2c(c1)OCC(=O)CO2 [Material 17]
Log of liquid dish neat product liquid-air partition coefficient (Comment Code K/L): K (Log of liquid dish neat product liquid-air partition coefficient greater than or equal to 7)

COc1ccccc1-c1ccccc1 [Material 22]
Log of liquid dish neat product liquid-air partition coefficient (Comment Code K/L): K (Log of liquid dish neat product liquid-air partition coefficient greater than or equal to 7)

CC1C(C)(C)C2=C(C3OC(C)(C)OC3CC2)C1(C)C (stereo not drawn) [Material 23]
Comment Code: Log of liquid dish neat product liquid-air partition coefficient: K (Log of liquid dish neat product liquid-air partition coefficient greater than or equal to 7)
Log of liquid dish neat product liquid-air partition coefficient (Comment Code K/L): K (Log of liquid dish neat product liquid-air partition coefficient greater than or equal to 7)

CC(C)C1OC2(CCCC2)OCC1(C)C (stereo not drawn) [Material 25]
Log of liquid dish neat product liquid-air partition coefficient (Comment Code K/L): K (Log of liquid dish neat product liquid-air partition coefficient greater than or equal to 7)

COc1ccccc1C=CC=O [Material 26]
Comment Code: Log of liquid dish neat product liquid-air partition coefficient: K (Log of liquid dish neat product liquid-air partition coefficient greater than or equal to 7)

CCCCCCCCOC(=O)c1ccco1 [Material 28]
Log of liquid dish neat product liquid-air partition coefficient (Comment Code K/L): K (Log of liquid dish neat product liquid-air partition coefficient greater than or equal to 7)

C=CC(=C)CCCC(C)(C)O [Material 34]
Log of liquid dish neat product liquid-air partition coefficient (Comment Code K/L): K (Log of liquid dish neat product liquid-air partition coefficient greater than or equal to 7)

C=CC(=C)CCCC(C)(C)OC(C)=O [Material 35]
Log of liquid dish neat product liquid-air partition coefficient (Comment Code K/L): K (Log of liquid dish neat product liquid-air partition coefficient greater than or equal to 7)

CCCCCCCCCCCCCC=O [Material 36]
Log of liquid dish neat product liquid-air partition coefficient (Comment Code K/L): K (Log of liquid dish neat product liquid-air partition coefficient greater than or equal to 7)

C=CCc1cc(OC)c2c(c1)OCO2 [Material 37]
Log of liquid dish neat product liquid-air partition coefficient (Comment Code K/L): K (Log of liquid dish neat product liquid-air partition coefficient greater than or equal to 7)

CCCCCCCCCCCCCC#N [Material 38]
Log of liquid dish neat product liquid-air partition coefficient (Comment Code K/L): K (Log of liquid dish neat product liquid-air partition coefficient greater than or equal to 7)

CC1=CC(C)C2C(CCC(C)(C)C2O)C1 (stereo not drawn) [Material 39]
Comment Code: Log of liquid dish neat product liquid-air partition coefficient: K (Log of liquid dish neat product liquid-air partition coefficient greater than or equal to 7)
Log of liquid dish neat product liquid-air partition coefficient (Comment Code K/L): K (Log of liquid dish neat product liquid-air partition coefficient greater than or equal to 7)

C=CC(C)=CCCC(C)(C)O [Material 42]
Log of liquid dish neat product liquid-air partition coefficient (Comment Code K/L): K (Log of liquid dish neat product liquid-air partition coefficient greater than or equal to 7)

C=CC(C)=CCCC(C)(C)O [Material 43]
Log of liquid dish neat product liquid-air partition coefficient (Comment Code K/L): K (Log of liquid dish neat product liquid-air partition coefficient greater than or equal to 7)

CC(=O)OCCC1=CCC2CC1C2(C)C (stereo not drawn) [Material 47]
Log of liquid dish neat product liquid-air partition coefficient (Comment Code K/L): K (Log of liquid dish neat product liquid-air partition coefficient greater than or equal to 7)

C=C(C)[C@@H]1CCC2=CC(=O)C[C@@H](C)[C@]2(C)C1 [Material 48]
Comment Code: Log of liquid dish neat product liquid-air partition coefficient: K (Log of liquid dish neat product liquid-air partition coefficient greater than or equal to 7)
Log of liquid dish neat product liquid-air partition coefficient (Comment Code K/L): K (Log of liquid dish neat product liquid-air partition coefficient greater than or equal to 7)

CC1CC=CCCCCCCCC(=O)OCC1 (stereo not drawn) [Material 52]
Log of liquid dish neat product liquid-air partition coefficient (Comment Code K/L): K (Log of liquid dish neat product liquid-air partition coefficient greater than or equal to 7)

CCNC(=O)C1CC(C)CCC1C(C)C (stereo not drawn) [Material 57]
Log of liquid dish neat product liquid-air partition coefficient (Comment Code K/L): K (Log of liquid dish neat product liquid-air partition coefficient greater than or equal to 7)

CC(C)=CCC/C(C)=C\COC=O [Material 59]
Comment Code: Log of liquid dish neat product liquid-air partition coefficient: K (Log of liquid dish neat product liquid-air partition coefficient greater than or equal to 7)

CC(=O)c1oc2ccccc2c1C [Material 61]
Log of liquid dish neat product liquid-air partition coefficient (Comment Code K/L): K (Log of liquid dish neat product liquid-air partition coefficient greater than or equal to 7)

C=CC(C)(O)CCC=C(C)CCC=C(C)C (stereo not drawn) [Material 63]
Log of liquid dish neat product liquid-air partition coefficient (Comment Code K/L): K (Log of liquid dish neat product liquid-air partition coefficient greater than or equal to 7)

CC(C)=CCC/C(C)=C\CO [Material 64]
Log of liquid dish neat product liquid-air partition coefficient (Comment Code K/L): K (Log of liquid dish neat product liquid-air partition coefficient greater than or equal to 7)

CC1=CC2(C=CC(C)O2)C(C(C)C)CC1 (stereo not drawn) [Material 68]
Log of liquid dish neat product liquid-air partition coefficient (Comment Code K/L): K (Log of liquid dish neat product liquid-air partition coefficient greater than or equal to 7)

CC1=CCC(C(C)CC2CCCC2=O)CC1 (stereo not drawn) [Material 69]
Log of liquid dish neat product liquid-air partition coefficient (Comment Code K/L): K (Log of liquid dish neat product liquid-air partition coefficient greater than or equal to 7)

CC(=O)/C=C/C1C(C)CCC(C)C1(C)C (stereo not drawn) [Material 71]
Log of liquid dish neat product liquid-air partition coefficient (Comment Code K/L): K (Log of liquid dish neat product liquid-air partition coefficient greater than or equal to 7)

CC(=O)OCC1CC=C(CCC=C(C)C)CC1 (stereo not drawn) [Material 74]
Log of liquid dish neat product liquid-air partition coefficient (Comment Code K/L): K (Log of liquid dish neat product liquid-air partition coefficient greater than or equal to 7)

CC1CCCCCCCCCCCCC(=O)C1 (stereo not drawn) [Material 79]
Log of liquid dish neat product liquid-air partition coefficient (Comment Code K/L): K (Log of liquid dish neat product liquid-air partition coefficient greater than or equal to 7)

CC1/C=C/CCCCCCCCCCC(=O)C1 (stereo not drawn) [Material 80]
Log of liquid dish neat product liquid-air partition coefficient (Comment Code K/L): K (Log of liquid dish neat product liquid-air partition coefficient greater than or equal to 7)

CCC(C)(O)/C=C/C=C(C)C (stereo not drawn) [Material 81]
Comment Code: Log of liquid dish neat product liquid-air partition coefficient: K (Log of liquid dish neat product liquid-air partition coefficient greater than or equal to 7)

CC(O)C(C)Cc1ccccc1 (stereo not drawn) [Material 82]
Log of liquid dish neat product liquid-air partition coefficient (Comment Code K/L): K (Log of liquid dish neat product liquid-air partition coefficient greater than or equal to 7)

CC(C)C1CCC(C(C)O)CC1 (stereo not drawn) [Material 83]
Log of liquid dish neat product liquid-air partition coefficient (Comment Code K/L): K (Log of liquid dish neat product liquid-air partition coefficient greater than or equal to 7)

CCC(=O)OC(C)c1ccccc1 (stereo not drawn) [Material 96]
Comment Code: Log of liquid dish neat product liquid-air partition coefficient: K (Log of liquid dish neat product liquid-air partition coefficient greater than or equal to 7)

CC(O)CCc1ccccc1 (stereo not drawn) [Material 98]
Log of liquid dish neat product liquid-air partition coefficient (Comment Code K/L): K (Log of liquid dish neat product liquid-air partition coefficient greater than or equal to 7)

CCCCCCCCCC(C)C(OC)OC (stereo not drawn) [Material 101]
Log of liquid dish neat product liquid-air partition coefficient (Comment Code K/L): K (Log of liquid dish neat product liquid-air partition coefficient greater than or equal to 7)

CCCCCCCCCC(C)C=O (stereo not drawn) [Material 103]
Log of liquid dish neat product liquid-air partition coefficient (Comment Code K/L): K (Log of liquid dish neat product liquid-air partition coefficient greater than or equal to 7)

CCCCCCCCCCCCCC(=O)OC [Material 104]
Log of liquid dish neat product liquid-air partition coefficient (Comment Code K/L): K (Log of liquid dish neat product liquid-air partition coefficient greater than or equal to 7)

CCCCCCC(CO)C(C)=O (stereo not drawn) [Material 106]
Log of liquid dish neat product liquid-air partition coefficient (Comment Code K/L): K (Log of liquid dish neat product liquid-air partition coefficient greater than or equal to 7)
